In patent publication US8912209B2, “Rock inhibitors” (Amakem NV, priority 2010, dated 2014) one finds IC50 data, which are given here for 24 compounds.

A value given as a limit tells only on which side of the number the result lay.

The target in the test is T1, ROCKα/ROCKII (Homo sapiens, UniProt O75116).
T1 construct: purchased Upstate Biotechnology 14-451
T1 sequence (O75116 whole entry): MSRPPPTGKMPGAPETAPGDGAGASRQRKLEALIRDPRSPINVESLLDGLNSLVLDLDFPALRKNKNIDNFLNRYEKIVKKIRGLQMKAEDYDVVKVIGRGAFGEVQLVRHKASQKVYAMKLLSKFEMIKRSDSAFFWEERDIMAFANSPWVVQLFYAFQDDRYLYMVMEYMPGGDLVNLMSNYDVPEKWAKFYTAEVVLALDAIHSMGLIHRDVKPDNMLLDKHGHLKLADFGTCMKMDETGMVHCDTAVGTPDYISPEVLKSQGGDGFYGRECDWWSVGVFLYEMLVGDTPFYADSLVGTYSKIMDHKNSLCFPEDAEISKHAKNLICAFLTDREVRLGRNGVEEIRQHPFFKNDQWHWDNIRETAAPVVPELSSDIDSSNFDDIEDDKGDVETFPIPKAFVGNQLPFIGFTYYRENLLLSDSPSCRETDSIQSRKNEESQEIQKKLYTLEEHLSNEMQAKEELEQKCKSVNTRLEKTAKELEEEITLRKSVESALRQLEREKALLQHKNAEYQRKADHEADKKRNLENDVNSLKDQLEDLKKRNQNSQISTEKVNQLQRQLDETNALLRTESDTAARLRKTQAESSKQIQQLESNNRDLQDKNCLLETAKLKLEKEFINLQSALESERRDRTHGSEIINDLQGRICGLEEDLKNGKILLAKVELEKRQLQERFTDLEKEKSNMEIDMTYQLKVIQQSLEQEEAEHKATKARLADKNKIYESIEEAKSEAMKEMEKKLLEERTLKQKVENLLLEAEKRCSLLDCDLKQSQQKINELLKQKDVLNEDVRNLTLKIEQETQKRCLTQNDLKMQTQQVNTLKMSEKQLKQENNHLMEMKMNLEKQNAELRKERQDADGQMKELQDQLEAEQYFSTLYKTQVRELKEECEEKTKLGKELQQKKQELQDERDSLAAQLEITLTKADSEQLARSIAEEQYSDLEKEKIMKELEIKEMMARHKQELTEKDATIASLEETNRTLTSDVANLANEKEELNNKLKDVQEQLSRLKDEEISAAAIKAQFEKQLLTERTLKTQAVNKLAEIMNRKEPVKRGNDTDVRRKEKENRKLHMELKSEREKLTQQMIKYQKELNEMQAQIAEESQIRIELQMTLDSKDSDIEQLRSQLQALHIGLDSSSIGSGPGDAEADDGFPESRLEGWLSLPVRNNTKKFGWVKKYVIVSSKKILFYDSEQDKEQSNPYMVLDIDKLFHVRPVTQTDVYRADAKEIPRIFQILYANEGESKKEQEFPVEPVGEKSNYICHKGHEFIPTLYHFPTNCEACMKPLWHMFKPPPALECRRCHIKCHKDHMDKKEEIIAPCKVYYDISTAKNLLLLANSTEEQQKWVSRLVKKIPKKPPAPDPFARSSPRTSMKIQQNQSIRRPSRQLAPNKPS
Nature of the test: ROCK inhibition, Method 2 fluorescence polarization (FP) assay, ROCK IMAP Kit. Format: biochemical. The note with it: 10 μM ATP, read-out: IC50 Meth. 2. How it is done:
The inhibition assays were performed with a fluorescence polarization (FP) assay using the commercially available ROCK IMAP Kit from Molecular Devices (Product ID. No. R8093), essentially in accordance with the protocol supplied by the manufacturer. […] The enzyme mix ROCKα/ROCKII was obtained from Upstate Biotechnology (Product ID No 14-451).
In summary, all compounds were screened in the wells of a 384 well plate for enzymatic inhibition with concentrations varying from 100 μM to 0.3 nM using a stepwise 3 (or 2)-fold dilution.
To perform the assay, 1 μl of a solution of the compound to be tested in DMSO (at each concentration) was added to 2 μl of a solution of the enzyme in 10 mM Tris-HCl, 10 mM MgCl2, 0.1% BSA, 0.05% NaN3, pH 7,2. The final concentration of the enzyme was 2.6 nM.
After incubating for 30 minutes at RT, 2 μl of a mixture of ATP and the protein substrate in 10 mM Tris-HCl, 10 mM MgCl2, 0.1% BSA, 0.05% NaN3, pH 7.2 was added. The final concentration of the ATP was 10 μM and final concentration of protein substrate was 0.2 μM.
After incubating for 60 minutes at RT, 12 μl of the IMAP Binding Solution (mix of the IMAP Binding Buffer A (1×) and the IMAP Binding Reagent (from the ROCK IMAP kit)) was added.
The mixture thus obtained (total volume: 17 μl) was incubated for 60 minutes at RT, upon which the fluorescence polarization was measured using an automated plate reader (Perkin Elmer, Model Envision 2100-0010 HTS) with FP filters: excitation filter FITC FP 480 and emission filters FITC FP P-pol 535 and FITC FP S-pol 535 (Perkin-Elmer). The results were fitted to a curve using the XL-Fit algorithm and IC50 values were calculated for each fitted curve, again using the XL-Fit algorithm.
With `COc1ccc(OC(=O)c2cccc(-c3cc(C(=O)Nc4ccncc4)ccc3C(C)N)c2)cc1OC` (stereo not drawn) [Compound 77, 2′-(1-Amino-ethyl)-5′-(pyridin-4-ylcarbamoyl)-biphenyl-3-carboxylic acid 3,4-dimethoxy-phenyl ester], the IC50 was less than 100 nM.

`COc1ccc(OC(=O)c2cccc(-c3cc(C(=O)Nc4ccncc4F)ccc3C(C)N)c2)cc1OC` (stereo not drawn) [Compound 78, 2′-(1-Amino-ethyl)-5′-(3-fluoro-pyridin-4-ylcarbamoyl)-biphenyl-3-carboxylic acid 3,4-dimethoxy-phenyl ester]: the concentration for half-maximal inhibition (IC50) is less than 100 nM.

Regarding `COc1cc(OC(=O)c2cccc(-c3cc(C(=O)Nc4ccncc4F)ccc3C(C)N)c2)cc(OC)c1OC` (stereo not drawn) [Compound 79, 2′-(1-Amino-ethyl)-5′-(3-fluoro-pyridin-4-ylcarbamoyl)-biphenyl-3-carboxylic acid 3,4,5-trimethoxy phenylester], the half-inhibitory concentration (IC50) was less than 100 nM.

With `COc1cc(OC(=O)c2cccc(-c3cc(C(=O)Nc4ccncc4)ccc3C(C)N)c2)cc(OC)c1OC` (stereo not drawn) [Compound 80, 2′-(1-Amino-ethyl)-5′-(pyridin-4-ylcarbamoyl)-biphenyl-3-carboxylic acid 3,4,5-trimethoxy-phenyl ester], the concentration for half-maximal inhibition (IC50) lay in the range of 100 to 1000 nM.

As for `COc1ccc(OC(=O)c2cccc(-c3cc(C(=O)Nc4ccncc4)ccc3C(C)N)c2)c(OC)c1OC` (stereo not drawn) [Compound 81, 2′-(1-Amino-ethyl)-5′-(pyridin-4-ylcarbamoyl)-biphenyl-3-carboxylic acid 2,3,4-trimethoxy-phenyl ester], the half-inhibitory concentration (IC50) is less than 100 nM.

Regarding `CSc1ccc(OC(=O)c2cccc(-c3cc(C(=O)Nc4ccncc4)ccc3C(C)N)c2)cc1` (stereo not drawn) [Compound 82, 2′-(1-Amino-ethyl)-5′-(pyridin-4-ylcarbamoyl)-biphenyl-3-carboxylic acid 4-methylsulfanyl-phenyl ester], the IC50 was less than 100 nM.

In the case of `CC(N)c1ccc(C(=O)Nc2ccncc2)cc1-c1cccc(C(=O)OCc2c(F)c(F)c(F)c(F)c2F)c1` (stereo not drawn) [Compound 83, 2′-(1-Amino-ethyl)-5′-(pyridin-4-ylcarbamoyl)-biphenyl-3-carboxylic acid pentafluoro-phenylmethyl ester], the IC50 lay within 100 to 1000 nM.

For `CC(N)c1ccc(C(=O)Nc2ccncc2)cc1-c1cccc(C(=O)OCc2ccc(Br)cc2)c1` (stereo not drawn) [Compound 84, 2′-(1-Amino-ethyl)-5′-(pyridin-4-ylcarbamoyl)-biphenyl-3-carboxylic acid 4-bromo-benzyl ester], the IC50 lay within 100 to 1000 nM.

Turning to `CC(N)c1ccc(C(=O)Nc2ccncc2)cc1-c1cccc(C(=O)OCc2ccccc2[N+](=O)[O-])c1` (stereo not drawn) [Compound 85, 2′-(1-Amino-ethyl)-5′-(pyridin-4-ylcarbamoyl)-biphenyl-3-carboxylic acid 2-nitro-benzyl ester], the 50% inhibitory concentration (IC50) lay within 100 to 1000 nM.

For `CC(N)c1ccc(C(=O)Nc2ccncc2)cc1-c1cccc(C(=O)OCCc2ccccc2)c1` (stereo not drawn) [Compound 87, 2′-(1-Amino-ethyl)-5′-(pyridin-4-ylcarbamoyl)-biphenyl-3-carboxylic acid phenethyl ester], the concentration for half-maximal inhibition (IC50) was in the range of 100 to 1000 nM.

With `CC(N)c1ccc(C(=O)Nc2ccncc2)cc1-c1cccc(C(=O)OCCc2cccs2)c1` (stereo not drawn) [Compound 91, 2′-(1-Amino-ethyl)-5′-(pyridin-4-ylcarbamoyl)-biphenyl-3-carboxylic acid 2-thiophen-2-yl-ethyl ester], the IC50 was 100 to 1000 nM.

For the compound `CC(N)c1ccc(C(=O)Nc2ccncc2)cc1-c1cccc(C(=O)OCCc2ccsc2)c1` (stereo not drawn) [Compound 92, 2′-(1-Amino-ethyl)-5′-(pyridin-4-ylcarbamoyl)-biphenyl-3-carboxylic acid 2-thiophen-3-yl-ethyl ester], the IC50 lay within 100 to 1000 nM.

As for `CC(N)c1ccc(C(=O)Nc2ccncc2)cc1-c1cccc(C(=O)OCCc2ccccn2)c1` (stereo not drawn) [Compound 93, 2′-(1-Amino-ethyl)-5′-(pyridin-4-ylcarbamoyl)-biphenyl-3-carboxylic acid 2-pyridin-2-yl-ethyl ester], the IC50 was less than 100 nM.

`CC(N)c1ccc(C(=O)Nc2ccncc2)cc1-c1cccc(C(=O)OCC2CCc3ccccc3C2)c1` (stereo not drawn) [Compound 94, 2′-(1-Amino-ethyl)-5′-(pyridin-4-ylcarbamoyl)-biphenyl-3-carboxylic acid 1,2,3,4-tetrahydro-naphthalen-2-ylmethyl ester]: the IC50 lay in the range of 100 to 1000 nM.

In the case of `CC(N)c1ccc(C(=O)Nc2ccncc2)cc1-c1cccc(C(=O)OCCN2C(=O)c3ccccc3C2=O)c1` (stereo not drawn) [Compound 95, 2′-(1-Amino-ethyl)-5′-(pyridin-4-ylcarbamoyl)-biphenyl-3-carboxylic acid 2-(1,3-dioxo-1,3-dihydro-isoindol-2-yl)-ethyl ester], the IC50 lay within 100 to 1000 nM.

Take `CC(N)c1ccc(C(=O)Nc2ccncc2)cc1-c1cccc(C(=O)OCC(=O)c2ccc(Br)cc2)c1` (stereo not drawn) [Compound 96, 2′-(1-Amino-ethyl)-5′-(pyridin-4-ylcarbamoyl)-biphenyl-3-carboxylic acid 2-(4-bromo-phenyl)-2-oxo-ethyl ester]: the half-maximal inhibitory concentration (IC50) is less than 100 nM.

As to `CC(N)c1ccc(C(=O)Nc2ccncc2)cc1-c1cccc(C(=O)SC(C)(C)C)c1` (stereo not drawn) [Compound 101, 2′-(1-Amino-ethyl)-5′-(pyridin-4-ylcarbamoyl)-biphenyl-3-carbothioic acid S-tert-butyl ester], the IC50 was less than 100 nM.

On to `CCOC(=O)CCNC(=O)c1cccc(-c2cc(C(=O)Nc3ccncc3)ccc2C(C)N)c1` (stereo not drawn) [Compound 105, 3-{[2′-(1-Amino-ethyl)-5′-(pyridin-4-ylcarbamoyl)-biphenyl-3-carbonyl]-amino}-propionic acid ethyl ester], for which the IC50 is less than 100 nM.

Turning to `CC(N)c1ccc(C(=O)Nc2ccncc2)cc1-c1cccc(C(=O)NC2CCSC2=O)c1` (stereo not drawn) [Compound 112, 6-(1-Amino-ethyl)-biphenyl-3,3′-dicarboxylic acid 3′-[(2-oxo-tetrahydro-thiophen-3-yl)-amide] 3-pyridin-4-ylamide], the IC50 was less than 100 nM.

For the compound `CC(N)c1ccc(C(=O)Nc2ccncc2)cc1-c1cccc(OCCSC2CCOC2=O)c1` (stereo not drawn) [Compound 130, 6-(1-Amino-ethyl)-3′-[2-(2-oxo-tetrahydro-furan-3-ylsulfanyl)-ethoxy]-biphenyl-3-carboxylylic acid pyridin-4-ylamide], the 50% inhibitory concentration (IC50) is less than 100 nM.

Turning to `CCCOC(=O)COc1cccc(-c2cc(C(=O)Nc3ccncc3F)ccc2C(C)N)c1` (stereo not drawn) [Compound 141, [2′-(1-Amino-ethyl)-5′-(3-fluoro-pyridin-4-ylcarbamoyl)-biphenyl-3-yloxy]-acetic acid propyl ester], the half-maximal inhibitory concentration (IC50) was in the range of 100 to 1000 nM.

As to `CC(N)c1ccc(C(=O)Nc2ccncc2F)cc1-c1cccc(OCC(=O)Oc2ccccc2)c1` (stereo not drawn) [Compound 142, [2′-(1-Amino-ethyl)-5′-(3-fluoro-pyridin-4-ylcarbamoyl)-biphenyl-3-yloxy]-acetic acid phenyl ester], the IC50 lay in the range of 100 to 1000 nM.

As for `CCOC(=O)CSCC(=O)Nc1cccc(-c2cc(C(=O)Nc3ccncc3)ccc2C(C)N)c1` (stereo not drawn) [Compound 154, {[2′-(1-Aminoethyl)-5′-(pyridin-4-ylcarbamoyl)-biphenyl-3-ylcarbamoyl]-methylsulfanyl}-acetic acid ethyl ester], the half-inhibitory concentration (IC50) was less than 100 nM.

As for `CC(N)c1ccc(C(=O)Nc2ccncc2)cc1-c1cccc(NC(=O)CC2CC(=O)Oc3ccccc32)c1` (stereo not drawn) [Compound 155, 6-(1-Amino-ethyl)-3′-[2-(2-oxo-chroman-4-yl)-acetylamino]-biphenyl-3-carboxylic acid pyridin-4-ylamide], the IC50 is less than 100 nM.

The term IC50 denotes the point on the concentration scale where inhibition reaches its midpoint.
